Results from patent US20200368234A1, “PHOTORECEPTOR GENE MODULATOR PHOTOREGULIN 3 FOR TREATMENT OF RETINAL DISEASE” (University of Washington, priority 2017, published 2020).
“Also recorded” adds a separate entry of the source.

Key:
Rhodopsin = Rhodopsin mRNA expression (qPCR) in dissociated retinal cell cultures; format: cell-based; settings: P5 mouse dissociated retinal cultures, 2 days treatment, vs DMSO and PR1
From the text: In order to identify compounds that may target Nr2e3 a cheminformatic strategy was used to screen hit compounds previously identified to interact with recombinant Nr2e3 in transfected CHO-S cells in a luciferase-based assay (PubChem Assay IDs: 602229, 624378, 624394, and 651849). As a secondary screen for initial hits, dissociated primary retinal cell cultures were used and assayed Rhodopsin, because it is a well-defined target of Nr2e3 signaling and is expressed at high levels exclusively in rod photoreceptors. Retina were dissociated from postnatal day 5 (P5) mice and cultured them in media containing the small molecules. After treatment for 2 days, the cells were collected for qPCR analysis and quantified Rhodopsin expression. […] This finding was confirmed with an immunofluorescence assay to examine Rhodopsin protein expression in dissociated retinal cultures from P5 mice. […]
RNA from retinas was isolated using TRIzol (Invitrogen) and cDNA was synthesized using the iScript cDNA synthesis kit (Bio-Rad). SSO Fast (Bio-Rad) was used for quantitative real-time PCR. For analysis, values were normalized to Gapdh (ΔCt) and ΔΔCt between DMSO and compound-treated samples was expressed as percent of DMSO treated controls (100*2^ΔΔCt). […]

rod photoreceptor genes = assay: RNA sequencing of retinas of wild type mice after intraperitoneal PR3; format: in vivo; settings: 10 mg/kg i.p. at P12, retinas collected 24 h later
Experimental: Nr2e3 signaling is important for rod photoreceptor cell fate, development and maturation, and maintenance of expression. To determine the effect of PR3 treatment on gene expression in postmitotic retinal cells, wild type mice were systemically treated (intraperitoneal injection) with PR3 or vehicle at P12. At P13, 24 h after the injection, the retinas were collected for global transcriptome analysis by RNA sequencing.
Photoregulin3 was identified by searching previous small molecule screens with SciFinder and PubChem for Nr2e3 interacting molecules. It was initially obtained from ChemDiv and then synthesized and purified in large quantities in the lab after initial screening. For in vivo experiments, mice were injected intraperitoneally with PR3 dissolved in DMSO at 10 mg/kg.
RNA from retinas was isolated using TRIzol (Invitrogen) and total RNA integrity was checking using an Agilent 4200 TapeStation and quantified using a Trinean DropSense96 spectrophotometer. RNA-seq libraries were prepared from total RNA using the TruSeq RNA Sample Prep kit (Illumina) and a Sciclone NGSx Workstation (PerkinElmer). Library size distributions were validated using an Agilent 4200 TapeStation. Additional Library quality control, blending of pooled indexed libraries, and cluster optimization were performed using Life Technologies' Invitrogen Qubit Fluorometer. RNA-seq libraries were pooled (4-plex) and clustered onto a flow cell lane. Sequencing was performed using an Illumina HiSeq 2500 in rapid mode employing a paired-end, 50 base read length (PE50) sequencing strategy.

`COc1cc2nc(CN3CC=C(c4ccccc4)CC3)nc(O)c2cc1OC` [PR3] was tested, and the “Rhodopsin mRNA expression” value (Rhodopsin) was “robust reduction in Rhodopsin compared to DMSO and PR1 treatment at all concentrations”, the “cone gene expression (RNA sequencing)” value (rod photoreceptor genes) was “large and global increases in cone gene expression were not observed” and the “toxicity to retinal cells (cell death and cell stress genes, RNA sequencing)” value (rod photoreceptor genes) was “not toxic to retinal cells”. For the same molecule, the “rod photoreceptor gene expression (RNA sequencing)” value (rod photoreceptor genes; 10 mg/kg) was “robust reduction in rod photoreceptor genes; also recorded: decrease in most rod photoreceptor-specific transcripts”.
